Data on 1 compound can be found in publication PMC11869560, “Anticancer and cancer preventive activities of shogaol and curcumin from Zingiberaceae family plants in KG-1a leukemic stem cells” (BMC Complementary Medicine and Therapies, 2025).

Test [1] has as its system IL-2 production in PHA-activated PBMCs. Kind of test: IL-2 production in PHA-activated PBMCs (ELISA). It counts as cell-based, human. Particulars: IC20 concentration, 2 h pre-treatment then 20 µL/mL PHA 24 h. On the procedure: For the measurement of interleukin-2 (IL-2), human PBMCs were pre-treated with plant extracts and active compounds at the IC20 concentration (Table S9) or 1 µg/mL of dexamethasone (positive control) in a 24-well plate for 2 h. Subsequently, 20 µL/mL of phytohemagglutinin (PHA) (Cat. No. 10576015, Thermo Fisher Scientific, MA, USA) was added to each well, and the cells were incubated for an additional 24 h. After that, supernatants were collected, and the levels of IL-2 were measured by the Human IL-2 Uncoated ELISA Kit (Invitrogen™, ThermoFisher Scientific, MA, USA), according to the manufacturer’s instructions.
(§1) The percentage of NO or cytokine inhibitions were calculated using the following equation: […]
(§2) where A is the level of cytokine or NO without treatment, and B is the level of cytokine or NO with treatment.
In general terms: In an ELISA, binding on a coated surface is turned into a signal by an enzyme label.

The subject of test [2] is TNF-α production in LPS-activated RAW264.7 cells. Kind of test: TNF-α production in LPS-activated RAW264.7 cells (ELISA). It counts as cell-based, mouse. To be noted: IC20 concentration, 2 h pre-treatment then 1 µg/mL LPS 24 h. On the procedure:
For the measurement of tumor necrosis factor-alpha (TNF-α) and NO, RAW264.7 cells were pre-treated with plant extracts and active compounds at a non-cytotoxic dose (IC20) (Table S9) or 1 µg/mL of dexamethasone (positive control) in a 24-well plate for 2 h. Subsequently, 1 µg/mL of lipopolysaccharide (LPS) (Cat No. 00497693, Invitrogen™, MA, USA) was added to each well, and the cells were incubated for an additional 24 h to allow sufficient time for the compounds to exert measurable anti-inflammatory effects while maintaining cell viability. Afterward, supernatants were collected, and the levels of TNF-α and NO were measured using the Mouse TNF alpha Uncoated ELISA Kit (Invitrogen™, ThermoFisher Scientific, MA, USA) and the Total Nitric Oxide Assay Kit (Invitrogen™, ThermoFisher Scientific, MA, USA), respectively, according to the manufacturer’s instructions.
as §1, §2

As for `CCCCC/C=C/C(=O)CCc1ccc(O)c(OC)c1` [Shogaol, shogaol], the “inhibition of IL-2 release” value in test [1] came out at 80.04 ± 4.82%. Besides, the “inhibition of TNF-α release” value in test [2] stood at 24.41 ± 0.99%.
